Experimental data: PubChem BioAssay AID1963421 (Molecular Pharmacology Branch, DTP, NCI, 2024)

System: 519858-162-T-J1-PDC complex spheroid growth, % test/control
Test: Anticancer human tumor 519858-162-T-J1-PDC patient-derived colon adenocarcinoma cell line growth inhibition [Asc]
Details: for IC50: curve of first compound; for viability, T/C: stronger effect = lower value; active = viability on the fitted dose curve at most 10% of control; inactive = the rest
In short: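 Concentration series start at each agent's clinical Cmax, or at 10 microM when none is established, and drop in half-log steps; agents are applied alone or together to complex spheroids built with HUVEC and hMSC.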

[1] = second compound 0.0316 µM, first compound 0.0316 µM
[2] = second compound 0.0316 µM, first compound 0.1 µM
[3] = second compound 0.0316 µM, first compound 0.316 µM
[4] = second compound 0.0316 µM, first compound 1 µM
[5] = second compound 0.1 µM, first compound 0.0316 µM
[6] = second compound 0.1 µM, first compound 0.1 µM
[7] = second compound 0.1 µM, first compound 0.316 µM
[8] = second compound 0.1 µM, first compound 1 µM
[9] = second compound 0.316 µM, first compound 0.0316 µM
[10] = second compound 0.316 µM, first compound 0.1 µM
[11] = second compound 0.316 µM, first compound 0.316 µM
[12] = second compound 0.316 µM, first compound 1 µM
[13] = second compound 1 µM, first compound 0.0316 µM
[14] = second compound 1 µM, first compound 0.1 µM
[15] = second compound 1 µM, first compound 0.316 µM
[16] = second compound 1 µM, first compound 1 µM
[17] = second compound 3.16 µM, first compound 0.0316 µM
[18] = second compound 3.16 µM, first compound 0.1 µM
[19] = second compound 3.16 µM, first compound 0.316 µM
[20] = second compound 3.16 µM, first compound 1 µM
[21] = second compound 10 µM, first compound 0.0316 µM
[22] = second compound 10 µM, first compound 0.1 µM
[23] = second compound 10 µM, first compound 0.316 µM
[24] = second compound 10 µM, first compound 1 µM
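Note: seven day drug exposure begun three days after spheroid seeding.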
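Throughout, for viability, T/C: 100% = DMSO vehicle wells and lower values mean less viable spheroid.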

O=C(c1cc(Cc2n[nH]c(=O)c3ccccc23)ccc1F)N1CCN(C(=O)C2CC2)CC1 + Cc1c(S(C)(=O)=O)c(-c2cc(F)cc(N3CCN(c4ccc(NS(=O)(=O)c5ccc(NC(CCN6CCC(C(=O)OCCCP(=O)(O)O)CC6)CSc6ccccc6)c(S(=O)(=O)C(F)(F)F)c5)cc4)CC3)c2)c(-c2ccc(Cl)cc2)n1C(C)C
inactive: viability, T/C [1] 68.1% | viability, T/C [2] 92.3% | viability, T/C [3] 77.4% | viability, T/C [4] 104% | viability, T/C (second compound 0.0316 µM, first compound 3.16 µM) 91.5% | viability, T/C (second compound 0.0316 µM, first compound 10 µM) 68.3% | viability, T/C [5] 92.1% | viability, T/C [6] 107% | viability, T/C [7] 102% | viability, T/C [8] 75.8% | viability, T/C (second compound 0.1 µM, first compound 3.16 µM) 58.7% | viability, T/C (second compound 0.1 µM, first compound 10 µM) 78.3% | viability, T/C [9] 100% | viability, T/C [10] 129% | viability, T/C [11] 77.8% | viability, T/C [12] 87.2% | viability, T/C (second compound 0.316 µM, first compound 3.16 µM) 101% | viability, T/C (second compound 0.316 µM, first compound 10 µM) 62.9% | viability, T/C [13] 95.4% | viability, T/C [14] 100% | viability, T/C [15] 71.6% | viability, T/C [16] 73.8% | viability, T/C (second compound 1 µM, first compound 3.16 µM) 93.1% | viability, T/C (second compound 1 µM, first compound 10 µM) 100% | viability, T/C [17] 76.5% | viability, T/C [18] 94% | viability, T/C [19] 74.8% | viability, T/C [20] 84.1% | viability, T/C (second compound 3.16 µM, first compound 3.16 µM) 70.7% | viability, T/C (second compound 3.16 µM, first compound 10 µM) 86.6% | viability, T/C [21] 71.6% | viability, T/C [22] 101% | viability, T/C [23] 58.2% | viability, T/C [24] 72.9% | viability, T/C (second compound 10 µM, first compound 3.16 µM) 65.2% | viability, T/C (second compound 10 µM, first compound 10 µM) 57.6%
> 10000 nM: IC50 (second compound 0.0316 µM) | IC50 (second compound 0.1 µM) | IC50 (second compound 0.316 µM) | IC50 (second compound 1 µM) | IC50 (second compound 3.16 µM) | IC50 (second compound 10 µM)

O=C(c1ccc(F)c(F)c1Nc1ccc(I)cc1F)N1CC(O)([C@@H]2CCCCN2)C1 + Cc1c(S(C)(=O)=O)c(-c2cc(F)cc(N3CCN(c4ccc(NS(=O)(=O)c5ccc(NC(CCN6CCC(C(=O)OCCCP(=O)(O)O)CC6)CSc6ccccc6)c(S(=O)(=O)C(F)(F)F)c5)cc4)CC3)c2)c(-c2ccc(Cl)cc2)n1C(C)C
122 nM: IC50 (second compound 10 µM)
283 nM: IC50 (second compound 0.0316 µM)
inactive: viability, T/C (second compound 0.0316 µM, first compound 0.00316 µM) 113% | viability, T/C (second compound 0.0316 µM, first compound 0.01 µM) 84.2% | viability, T/C [1] 78.6% | viability, T/C [2] 115% | viability, T/C [3] 44.9% | viability, T/C [4] 14.5% | viability, T/C (second compound 0.1 µM, first compound 0.00316 µM) 93.6% | viability, T/C (second compound 0.1 µM, first compound 0.01 µM) 91.4% | viability, T/C [5] 76.5% | viability, T/C [6] 50.8% | viability, T/C [7] 54.6% | viability, T/C [8] 18.9% | viability, T/C (second compound 0.316 µM, first compound 0.00316 µM) 81.8% | viability, T/C (second compound 0.316 µM, first compound 0.01 µM) 92.2% | viability, T/C [9] 110% | viability, T/C [10] 63.8% | viability, T/C [11] 39.2% | viability, T/C [12] 24.1% | viability, T/C (second compound 1 µM, first compound 0.00316 µM) 108% | viability, T/C (second compound 1 µM, first compound 0.01 µM) 92.1% | viability, T/C [13] 72.5% | viability, T/C [14] 54.7% | viability, T/C [15] 66% | viability, T/C [16] 19.5% | viability, T/C (second compound 3.16 µM, first compound 0.00316 µM) 61.8% | viability, T/C (second compound 3.16 µM, first compound 0.01 µM) 82.7% | viability, T/C [17] 60.3% | viability, T/C [18] 72% | viability, T/C [19] 43.3% | viability, T/C [20] 12.9% | viability, T/C (second compound 10 µM, first compound 0.00316 µM) 75.6% | viability, T/C (second compound 10 µM, first compound 0.01 µM) 59.8% | viability, T/C [21] 47.1% | viability, T/C [22] 60.5% | viability, T/C [23] 39.3% | viability, T/C [24] 9.69%
164 nM: IC50 (second compound 0.316 µM)
235 nM: IC50 (second compound 3.16 µM)
212 nM: IC50 (second compound 0.1 µM)
232 nM: IC50 (second compound 1 µM)
